Results as given in ChEMBL document CHEMBL3112556, “Novel GlyT1 inhibitor chemotypes by scaffold hopping. Part 2: development of a [3.3.0]-based series and other piperidine bioisosteres” (Bioorg Med Chem Lett, 2014).
pIC50: −log10 of the molar value. Active and inactive are the calls of the source. No cut-off for these calls is given here.

Test system: not listed separately
Test: Metabolic stability in rat liver microsomes assessed as compound remaining after 90 mins
Type: ADME
Details: read-out: Stability

Row | remaining at 1.5 h [%] | SMILES
1 | 75 | Cn1cnc(S(=O)(=O)N2CC(C(NC(=O)c3ccc(Cl)cc3Cl)c3ccccn3)C2)c1 (racemic)
2 | 30 | Cn1cnc(S(=O)(=O)N2CC3CCC(NC(=O)c4ccc(Cl)cc4Cl)C3C2)c1 (racemic)

Test system: not listed separately
Test: Inhibition of CYP450 (unknown origin)
Type: ADME, Homo sapiens
Details: not given

Row | pIC50 | SMILES
3 | < 5.00 | Cn1cnc(S(=O)(=O)N2CC(C(NC(=O)c3ccc(Cl)cc3Cl)c3ccccn3)C2)c1 (racemic)
4 | < 5.00 | Cn1cnc(S(=O)(=O)N2CC3CCC(NC(=O)c4ccc(Cl)cc4Cl)C3C2)c1 (racemic)

Test system: not listed separately
Test: Fraction unbound in rat
Type: ADME
Details: in vitro

Row | Fu [%] | SMILES
5 | 14 | Cn1cnc(S(=O)(=O)N2CC(C(NC(=O)c3ccc(Cl)cc3Cl)c3ccccn3)C2)c1 (racemic)
6 | 8.1 | Cn1cnc(S(=O)(=O)N2CC3CCC(NC(=O)c4ccc(Cl)cc4Cl)C3C2)c1 (racemic)

Target: T1, Sodium- and chloride-dependent glycine transporter 1 (Homo sapiens) (UniProt P48067)
T1 sequence (whole entry): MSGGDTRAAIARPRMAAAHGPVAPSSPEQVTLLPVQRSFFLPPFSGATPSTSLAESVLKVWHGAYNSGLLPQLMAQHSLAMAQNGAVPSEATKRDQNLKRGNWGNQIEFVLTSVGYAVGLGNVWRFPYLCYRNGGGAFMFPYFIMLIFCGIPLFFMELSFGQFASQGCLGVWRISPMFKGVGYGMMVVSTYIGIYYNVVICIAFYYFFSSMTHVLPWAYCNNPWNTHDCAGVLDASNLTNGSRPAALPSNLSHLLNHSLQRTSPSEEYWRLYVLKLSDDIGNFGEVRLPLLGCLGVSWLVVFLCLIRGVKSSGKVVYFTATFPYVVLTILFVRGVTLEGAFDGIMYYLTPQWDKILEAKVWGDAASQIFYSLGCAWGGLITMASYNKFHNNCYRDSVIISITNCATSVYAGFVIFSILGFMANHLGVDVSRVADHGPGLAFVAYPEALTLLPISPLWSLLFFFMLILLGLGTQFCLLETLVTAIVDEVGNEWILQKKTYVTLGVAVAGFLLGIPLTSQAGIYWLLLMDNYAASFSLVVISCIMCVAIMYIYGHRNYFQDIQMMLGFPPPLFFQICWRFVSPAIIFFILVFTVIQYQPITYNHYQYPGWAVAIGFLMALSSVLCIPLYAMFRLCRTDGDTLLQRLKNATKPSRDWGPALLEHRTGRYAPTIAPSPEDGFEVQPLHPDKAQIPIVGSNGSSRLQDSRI
Test: Competitive inhibition of GlyT1 (unknown origin) assessed as [14C]-glycine transport by Eadie-Hoffstee plot analysis
Details: not given

Row | competitive inhibition (active/inactive) | SMILES
7 | Active | Cn1cnc(S(=O)(=O)N2CC(C(NC(=O)c3ccc(Cl)cc3Cl)c3ccccn3)C2)c1 (racemic)
8 | Active | Cn1cnc(S(=O)(=O)N2CC3CCC(NC(=O)c4ccccc4C(F)(F)F)C3C2)c1 (racemic)
9 | Active | CCCS(=O)(=O)N1CC(C(NC(=O)c2ccc(Cl)cc2Cl)c2ccccc2)C1 (racemic)
10 | Active | CCCS(=O)(=O)N1CCC(C(NC(=O)c2ccc(Cl)cc2Cl)c2ccccc2)CC1 (racemic)
11 | Active | Cn1cnc(S(=O)(=O)N2CC(C(NC(=O)c3ccc(Cl)cc3Cl)c3ccccc3)C2)c1 (racemic)
12 | Active | Cn1cnc(S(=O)(=O)N2CC(C(NC(=O)c3ccc(Cl)cc3Cl)c3cccs3)C2)c1 (racemic)
13 | Active | Cn1cnc(S(=O)(=O)N2CCC(C(NC(=O)c3ccc(Cl)cc3Cl)c3ccccc3)CC2)c1 (racemic)
14 | Active | Cn1cnc(S(=O)(=O)N2CCC(C(NC(=O)c3ccc(Cl)cc3Cl)c3ccccn3)CC2)c1 (racemic)
15 | Active | Cn1cnc(S(=O)(=O)N2CCC(C(NC(=O)c3ccc(Cl)cc3Cl)c3cccs3)CC2)c1 (racemic)

Target: T2, Sodium- and chloride-dependent glycine transporter 2 (Homo sapiens, UniProt Q9Y345)
T2 sequence (Q9Y345 whole entry): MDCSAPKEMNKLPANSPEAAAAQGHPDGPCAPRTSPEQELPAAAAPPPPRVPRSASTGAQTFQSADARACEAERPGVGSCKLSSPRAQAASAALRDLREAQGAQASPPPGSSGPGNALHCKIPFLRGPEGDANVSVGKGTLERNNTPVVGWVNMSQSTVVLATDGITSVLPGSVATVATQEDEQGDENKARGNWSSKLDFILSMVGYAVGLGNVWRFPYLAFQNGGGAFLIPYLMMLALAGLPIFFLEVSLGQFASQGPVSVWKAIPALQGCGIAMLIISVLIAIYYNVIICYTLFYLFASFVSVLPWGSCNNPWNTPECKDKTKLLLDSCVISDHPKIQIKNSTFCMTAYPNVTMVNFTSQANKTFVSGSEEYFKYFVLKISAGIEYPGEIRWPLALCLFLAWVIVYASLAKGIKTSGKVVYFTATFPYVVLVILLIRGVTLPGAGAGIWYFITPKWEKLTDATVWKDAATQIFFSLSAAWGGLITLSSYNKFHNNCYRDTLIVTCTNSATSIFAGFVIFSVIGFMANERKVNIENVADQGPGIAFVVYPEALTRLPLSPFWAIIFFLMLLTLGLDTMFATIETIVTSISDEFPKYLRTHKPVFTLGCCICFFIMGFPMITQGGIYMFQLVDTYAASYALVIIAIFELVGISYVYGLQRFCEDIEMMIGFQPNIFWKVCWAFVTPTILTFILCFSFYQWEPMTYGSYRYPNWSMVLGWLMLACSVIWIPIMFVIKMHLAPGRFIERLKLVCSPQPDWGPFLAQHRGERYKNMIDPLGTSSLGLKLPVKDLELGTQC
Test: Inhibition of GlyT2 (unknown origin) assessed as [14C]-glycine transport
Details: not given

Row | SMILES | pIC50
16 | Cn1cnc(S(=O)(=O)N2CC3CCC(NC(=O)c4ccccc4Cl)C3C2)c1 (racemic) | < 4.52
17 | Cn1cnc(S(=O)(=O)N2CC3CCC(NC(=O)c4ccc(F)cc4F)C3C2)c1 (racemic) | < 4.52
18 | Cn1cnc(S(=O)(=O)N2CC3CCC(NC(=O)c4ccccc4F)C3C2)c1 (racemic) | < 4.52
19 | Cn1cnc(S(=O)(=O)N2CC3CCC(NC(=O)c4cccc(F)c4)C3C2)c1 (racemic) | < 4.52
20 | Cn1cnc(S(=O)(=O)N2CC3CCC(NC(=O)c4ccc(F)cc4)C3C2)c1 (racemic) | < 4.52
21 | Cn1cnc(S(=O)(=O)N2CC3CCC(NC(=O)c4ccc(F)c(F)c4)C3C2)c1 (racemic) | < 4.52
22 | Cn1cnc(S(=O)(=O)N2CC3CCC(NC(=O)c4ccc(Cl)cc4)C3C2)c1 (racemic) | < 4.52
23 | Cn1cnc(S(=O)(=O)N2CC3CCC(NC(=O)c4ccc(Cl)c(Cl)c4)C3C2)c1 (racemic) | < 4.52
24 | Cn1cnc(S(=O)(=O)N2CC3CCC(NC(=O)C4CCCCC4)C3C2)c1 (racemic) | < 4.52

The next lines start with the values.

Row | pIC50 | SMILES
25 | < 4.52 | Cn1cnc(S(=O)(=O)N2CC3CCC(NC(=O)c4c(F)cccc4F)C3C2)c1 (racemic)
26 | < 4.52 | CCS(=O)(=O)N1CC2CCC(NC(=O)c3ccc(Cl)cc3Cl)C2C1 (racemic)
27 | < 4.52 | CCCS(=O)(=O)N1CC2CCC(NC(=O)c3ccc(Cl)cc3Cl)C2C1 (racemic)
28 | < 4.52 | CCCCS(=O)(=O)N1CC2CCC(NC(=O)c3ccc(Cl)cc3Cl)C2C1 (racemic)
29 | < 4.52 | O=C(NC1CCC2CN(S(=O)(=O)c3ccccc3)CC21)c1ccc(Cl)cc1Cl (racemic)
30 | < 4.52 | O=C(NC1CCC2CN(S(=O)(=O)c3ccccn3)CC21)c1ccc(Cl)cc1Cl (racemic)
31 | < 4.52 | O=C(NC1CCC2CN(S(=O)(=O)c3cccs3)CC21)c1ccc(Cl)cc1Cl (racemic)
32 | < 4.52 | Cn1cnc(S(=O)(=O)N2CC3CCC(NC(=O)c4ccc(Cl)cc4Cl)C3C2)c1 (racemic)
33 | < 4.52 | Cn1cc(S(=O)(=O)N2CC3CCC(NC(=O)c4ccc(Cl)cc4Cl)C3C2)nn1 (racemic)
34 | < 4.52 | Cn1cnc(S(=O)(=O)N2CC3CCC(NC(=O)c4ccccc4C(F)(F)F)C3C2)c1 (racemic)

Target: T3, Sodium- and chloride-dependent glycine transporter 1 (Homo sapiens, UniProt P48067)
T3 sequence (P48067 whole entry): T1 sequence (whole entry)
Test: Inhibition of GlyT1 (unknown origin) assessed as [14C]-glycine transport
Details: not given

Row | SMILES | pIC50
35 | Cn1cnc(S(=O)(=O)N2CC3CCC(NC(=O)c4ccccc4Cl)C3C2)c1 (racemic) | 6.94
36 | Cn1cnc(S(=O)(=O)N2CC3CCC(NC(=O)c4cccc(F)c4)C3C2)c1 (racemic) | < 5.00
37 | Cn1cnc(S(=O)(=O)N2CC3CCC(NC(=O)c4ccc(F)c(F)c4)C3C2)c1 (racemic) | 5.80

Next, values leading:

Row | pIC50 | SMILES
38 | < 5.00 | CCS(=O)(=O)N1CC2CCC(NC(=O)c3ccc(Cl)cc3Cl)C2C1 (racemic)
39 | < 5.00 | CCCS(=O)(=O)N1CC2CCC(NC(=O)c3ccc(Cl)cc3Cl)C2C1 (racemic)
40 | < 5.00 | CCCCS(=O)(=O)N1CC2CCC(NC(=O)c3ccc(Cl)cc3Cl)C2C1 (racemic)
41 | < 5.00 | O=C(NC1CCC2CN(S(=O)(=O)c3ccccc3)CC21)c1ccc(Cl)cc1Cl (racemic)
42 | < 5.00 | O=C(NC1CCC2CN(S(=O)(=O)c3ccccn3)CC21)c1ccc(Cl)cc1Cl (racemic)
43 | < 5.00 | O=C(NC1CCC2CN(S(=O)(=O)c3cccs3)CC21)c1ccc(Cl)cc1Cl (racemic)
44 | 7.82 | Cn1cc(S(=O)(=O)N2CC3CCC(NC(=O)c4ccc(Cl)cc4Cl)C3C2)nn1 (racemic)
45 | 6.95 | Cn1cnc(S(=O)(=O)N2CC3CCC(NC(=O)c4ccccc4C(F)(F)F)C3C2)c1 (racemic)
